{
  "source": "ChEMBL document CHEMBL4392875",
  "about": "“Rearranged Clerodane Diterpenoids from the Stems of Tinospora baenzigeri” (2019)",
  "data": [
    {"test_system": "HepG2", "assay": "Hepatoprotective activity in human HepG2 cells assessed as inhibition of APAP-induced cell damage at 10 uM by MTT assay relative to control", "type": "functional", "units": {"inhibition at 10 µM": "%"}, "values": [
      {"smiles": "C[C@@]12C[C@@H](c3ccoc3)OC(=O)C1=CC[C@]1(C)[C@H]2C[C@H]2COC(=O)[C@]21OC1O[C@H](CO)[C@@H](O)[C@H](O)[C@H]1O", "note": "(stereo partly specified)", "inhibition at 10 µM": 3.8},
      {"smiles": "COc1cc([C@@H]2OC[C@@H]3C(=O)OC[C@@H]32)cc(OC)c1O", "inhibition at 10 µM": 17},
      {"smiles": "C[C@@]12C[C@H](c3ccoc3)OC(=O)C1=CC[C@]1(C)[C@H]2C[C@H]2COC(=O)[C@]21O", "inhibition at 10 µM": 6.6},
      {"smiles": "C[C@@]12C[C@H](C3=CC(=O)O[C@@H]3O)OC(=O)C1=CC[C@]1(C)[C@H]2C[C@H]2COC(=O)[C@]21O", "inhibition at 10 µM": 4.9},
      {"smiles": "O=C(/C=C/c1ccc(O)cc1)NCCc1ccc(O)cc1", "note": "[N-P-COUMAROYL TYRAMINE]", "inhibition at 10 µM": 39},
      {"smiles": "COC(=O)c1cc(OC)c2c(c1-c1c(CO)cc(OC)c3c1OCO3)OCO2", "note": "[BICYCLOL]", "inhibition at 10 µM": 15.7},
      {"smiles": "COc1cc(/C=C/C(=O)NCCc2ccc(O)cc2)ccc1O", "note": "[N-TRANS-FERULOYL TYRAMINE]", "inhibition at 10 µM": 3.5},
      {"smiles": "COC(=O)[C@H]1O[C@H]2C[C@]1(C)C(CCCO[C@@H]1O[C@H](CO)[C@@H](O)[C@H](O)[C@H]1O)[C@]1(C)C[C@@H](c3ccoc3)OC(=O)[C@H]21", "note": "(stereo partly specified)", "inhibition at 10 µM": -24.9},
      {"smiles": "C[C@@]12C[C@@H](c3ccoc3)OC(=O)C1=CC[C@]1(C)[C@H]2C[C@H]2COC(=O)[C@]21O", "inhibition at 10 µM": 6.4},
      {"smiles": "C[C@@H](O)/C=C/C1[C@]2(C)CO[C@@]1(C)C[C@@H](O)C2", "note": "(stereo partly specified)", "inhibition at 10 µM": 19.2},
      {"smiles": "COc1cc(C[C@H]2CO[C@H](c3ccc(O)c(OC)c3)[C@H]2CO)ccc1O", "note": "[LARICIRESINOL]", "inhibition at 10 µM": -4.3}
    ]}
  ]
}
